# BigSolDB 2.1
structure (smiles),measurement,setting,value
CC#CCn1c(N2CCC[C@@H](N)C2)nc2c1c(=O)n(Cc1nc(C)c3ccccc3n1)c(=O)n2C,solubility (mole fraction),"in acetonitrile, 273.15 K",0.000425
same,solubility (mole fraction),"in acetonitrile, 278.15 K",0.000546
same,solubility (mole fraction),"in acetonitrile, 283.15 K",0.000675
same,solubility (mole fraction),"in acetonitrile, 288.15 K",0.000821
same,solubility (mole fraction),"in acetonitrile, 293.15 K",0.000974
same,solubility (mole fraction),"in acetonitrile, 298.15 K",0.00114
same,solubility (mole fraction),"in acetonitrile, 303.15 K",0.00132
same,solubility (mole fraction),"in acetonitrile, 308.15 K",0.00151
same,solubility (mole fraction),"in acetonitrile, 313.15 K",0.00172
same,solubility (mole fraction),"in ethanol, 273.15 K",0.000511
same,solubility (mole fraction),"in ethanol, 278.15 K",0.000637
same,solubility (mole fraction),"in ethanol, 283.15 K",0.000782
same,solubility (mole fraction),"in ethanol, 288.15 K",0.000947
same,solubility (mole fraction),"in ethanol, 293.15 K",0.00113
same,solubility (mole fraction),"in ethanol, 298.15 K",0.00137
same,solubility (mole fraction),"in ethanol, 303.15 K",0.00163
same,solubility (mole fraction),"in ethanol, 308.15 K",0.00194
same,solubility (mole fraction),"in ethanol, 313.15 K",0.00231
same,solubility (mole fraction),"in isopropanol, 273.15 K",0.000227
same,solubility (mole fraction),"in isopropanol, 278.15 K",0.000282
same,solubility (mole fraction),"in isopropanol, 283.15 K",0.000343
same,solubility (mole fraction),"in isopropanol, 288.15 K",0.000421
same,solubility (mole fraction),"in isopropanol, 293.15 K",0.000496
same,solubility (mole fraction),"in isopropanol, 298.15 K",0.000578
same,solubility (mole fraction),"in isopropanol, 303.15 K",0.000668
same,solubility (mole fraction),"in isopropanol, 308.15 K",0.000765
same,solubility (mole fraction),"in isopropanol, 313.15 K",0.000874
same,solubility (mole fraction),"in methanol, 273.15 K",0.00061
same,solubility (mole fraction),"in methanol, 278.15 K",0.000778
same,solubility (mole fraction),"in methanol, 283.15 K",0.00097
same,solubility (mole fraction),"in methanol, 288.15 K",0.00121
same,solubility (mole fraction),"in methanol, 293.15 K",0.00148
same,solubility (mole fraction),"in methanol, 298.15 K",0.00179
same,solubility (mole fraction),"in methanol, 303.15 K",0.00213
same,solubility (mole fraction),"in methanol, 308.15 K",0.00254
same,solubility (mole fraction),"in methanol, 313.15 K",0.00302
same,solubility (mole fraction),"in n-propanol, 273.15 K",0.000342
same,solubility (mole fraction),"in n-propanol, 278.15 K",0.000403
same,solubility (mole fraction),"in n-propanol, 283.15 K",0.000478
same,solubility (mole fraction),"in n-propanol, 288.15 K",0.000573
same,solubility (mole fraction),"in n-propanol, 293.15 K",0.00067
same,solubility (mole fraction),"in n-propanol, 298.15 K",0.000794
same,solubility (mole fraction),"in n-propanol, 303.15 K",0.00093
same,solubility (mole fraction),"in n-propanol, 308.15 K",0.00108
same,solubility (mole fraction),"in n-propanol, 313.15 K",0.00125
